Measurements published in patent publication US10758534B2 (Vertex Pharmaceuticals Incorporated, priority 2014, dated 2020).

Target: T1, F508del (Homo sapiens, UniProt P13569, DEL508-508)
T1 construct: expressed in transfected cells
Assay: Protocol 2: FRET membrane potential optical assay (VIPR), identification of correction compounds
Format: cell-based
Settings: Table 3; compounds of Table 1 as modulators of CFTR activity; protocol not stated
Summary of the method: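 NIH3T3 mouse fibroblasts stably expressing F508del-CFTR incubated with compound 16 h at 37 °C in serum-free medium, then loaded with CC2-DMPE/DiSBAC2(3) FRET dyes. Channel activated with 10 μM forskolin plus 20 μM genistein in Cl⁻-free (gluconate) bath; depolarisation from Cl⁻ efflux read on VIPR II.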

T1 sequence (P13569 with tags, fused parts or gaps DEL508-508): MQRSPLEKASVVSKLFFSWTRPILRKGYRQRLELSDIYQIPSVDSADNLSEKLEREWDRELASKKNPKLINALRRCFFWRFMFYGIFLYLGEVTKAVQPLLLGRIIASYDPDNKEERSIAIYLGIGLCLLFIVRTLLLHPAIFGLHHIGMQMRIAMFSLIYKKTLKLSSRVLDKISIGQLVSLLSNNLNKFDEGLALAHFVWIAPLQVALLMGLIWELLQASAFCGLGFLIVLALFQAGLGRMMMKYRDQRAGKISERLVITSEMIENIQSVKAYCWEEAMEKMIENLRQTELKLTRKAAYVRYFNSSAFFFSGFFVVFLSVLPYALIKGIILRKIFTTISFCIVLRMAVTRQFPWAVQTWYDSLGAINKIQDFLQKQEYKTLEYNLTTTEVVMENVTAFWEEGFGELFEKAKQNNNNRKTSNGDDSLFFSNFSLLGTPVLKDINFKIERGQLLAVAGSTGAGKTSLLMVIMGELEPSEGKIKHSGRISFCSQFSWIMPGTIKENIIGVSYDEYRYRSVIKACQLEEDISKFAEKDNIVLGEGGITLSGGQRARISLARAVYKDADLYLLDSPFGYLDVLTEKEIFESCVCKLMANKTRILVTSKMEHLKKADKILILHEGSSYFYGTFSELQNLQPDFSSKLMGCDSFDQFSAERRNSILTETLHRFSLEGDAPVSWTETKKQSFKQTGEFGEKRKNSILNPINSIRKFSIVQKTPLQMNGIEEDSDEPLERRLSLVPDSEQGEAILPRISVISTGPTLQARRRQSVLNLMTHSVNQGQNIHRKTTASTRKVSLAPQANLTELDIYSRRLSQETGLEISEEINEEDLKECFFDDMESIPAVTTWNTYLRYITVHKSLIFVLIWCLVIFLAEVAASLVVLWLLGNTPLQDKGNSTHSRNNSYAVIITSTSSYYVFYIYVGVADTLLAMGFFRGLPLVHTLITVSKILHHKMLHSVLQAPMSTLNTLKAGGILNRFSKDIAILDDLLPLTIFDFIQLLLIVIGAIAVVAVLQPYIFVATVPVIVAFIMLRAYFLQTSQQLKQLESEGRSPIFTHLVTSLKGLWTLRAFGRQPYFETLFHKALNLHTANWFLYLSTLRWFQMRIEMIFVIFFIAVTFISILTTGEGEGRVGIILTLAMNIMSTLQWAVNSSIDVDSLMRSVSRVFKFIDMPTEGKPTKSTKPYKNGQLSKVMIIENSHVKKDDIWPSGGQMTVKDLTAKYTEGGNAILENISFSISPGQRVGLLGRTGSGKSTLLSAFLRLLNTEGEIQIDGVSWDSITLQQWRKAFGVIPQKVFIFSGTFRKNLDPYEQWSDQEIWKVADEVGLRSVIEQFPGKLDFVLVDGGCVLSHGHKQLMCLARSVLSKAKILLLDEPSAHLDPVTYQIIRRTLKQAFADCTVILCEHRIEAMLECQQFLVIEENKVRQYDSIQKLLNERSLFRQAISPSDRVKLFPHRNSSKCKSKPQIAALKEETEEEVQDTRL

| SMILES | EC30 |
| --- | --- |
| CC(C)COc1cc(F)cc(-c2ccc(C(=O)NS(=O)(=O)c3cccc(N)n3)c(N3C[C@H](C)C[C@H](C)C3)n2)c1 [Compound 371, N-[(6-amino-2-pyridyl)sulfonyl]-2-[(3R,5S)-3,5-dimethyl-1-piperidyl]-6-(3-fluoro-5-isobutoxy-phenyl)pyridine-3-carboxamide] | +++ (“+++” means <3 uM) |
| COCCNc1cccc(S(=O)(=O)NC(=O)c2ccc(C)nc2Oc2c(C)cc(C)cc2C)n1 [Compound 372, N-[[6-(2-methoxyethylamino)-2-pyridyl]sulfonyl]-6-methyl-2-(2,4,6-trimethylphenoxy)pyridine-3-carboxamide] | ++ (“++” means between 3 uM and 10 uM) |
| C[C@@H]1CC[C@H](C)N1c1nc(C(C)(C)C)ccc1C(=O)NS(=O)(=O)c1cccc(N)n1 [Compound 373, N-[(6-amino-2-pyridyl)sulfonyl]-6-tert-butyl-2-[(2S,5R)-2,5-dimethylpyrrolidin-1-yl]pyridine-3-carboxamide] | ++ (“++” means between 3 uM and 10 uM) |
| COc1ccc(-c2ccc(C(=O)NS(=O)(=O)c3cc[nH]n3)c(Oc3c(C)cc(C)cc3C)n2)c(F)c1 [Compound 374, 6-(2-fluoro-4-methoxy-phenyl)-N-(1H-pyrazol-3-ylsulfonyl)-2-(2,4,6-trimethylphenoxy)pyridine-3-carboxamide] | +++ (“+++” means <3 uM) |
| COc1cc(-c2ccc(C(=O)NS(=O)(=O)c3cccc(N)n3)c(Oc3c(C)cc(C)cc3C)n2)ccc1C [Compound 375, N-[(6-amino-2-pyridyl)sulfonyl]-6-(3-methoxy-4-methyl-phenyl)-2-(2,4,6-trimethylphenoxy)pyridine-3-carboxamide] | +++ (“+++” means <3 uM) |
| CC(C)COc1cc(F)cc(-c2ccc(C(=O)NS(=O)(=O)c3cccc(N)n3)c(Oc3ccccc3)n2)c1 [Compound 376, N-[(6-amino-2-pyridyl)sulfonyl]-6-(3-fluoro-5-isobutoxy-phenyl)-2-phenoxy-pyridine-3-carboxamide] | +++ (“+++” means <3 uM) |
| Cc1cc(C)c(CN2Cc3ccccc3C2(C)C(=O)NS(=O)(=O)c2ncccc2O)c(C)c1 (stereo not shown) [Compound 377, N-[(3-hydroxy-2-pyridyl)sulfonyl]-1-methyl-2-[(2,4,6-trimethylphenyl)methyl]isoindoline-1-carboxamide] | +++ (“+++” means <3 uM) |
| Cc1cc(C)c(CN2Cc3ccccc3C2(C)C(=O)NS(=O)(=O)c2ccn[nH]2)c(C)c1 (stereo not shown) [Compound 378, 1-methyl-N-(1H-pyrazol-5-ylsulfonyl)-2-[(2,4,6-trimethylphenyl)methyl]isoindoline-1-carboxamide] | +++ (“+++” means <3 uM) |
| COc1c(F)cc(Cl)cc1-c1cc(C(=O)NS(=O)(=O)c2ccccc2)n(Cc2c(C)cccc2C)n1 [Compound 379, N-(benzenesulfonyl)-5-(5-chloro-3-fluoro-2-methoxy-phenyl)-2-[(2,6-dimethylphenyl)methyl]pyrazole-3-carboxamide] | +++ (“+++” means <3 uM) |
| CC(C)COc1cc(F)cc(-c2ccc(C(=O)NS(=O)(=O)c3cccc(N)n3)c(N3CCCCC3)n2)c1 [Compound 380, N-[(6-amino-2-pyridyl)sulfonyl]-6-(3-fluoro-5-isobutoxy-phenyl)-2-(1-piperidyl)pyridine-3-carboxamide] | +++ (“+++” means <3 uM) |
| Cc1ccc(Oc2nc(-c3cnn(CC(C)C)c3)ccc2C(=O)NS(=O)(=O)c2cccc(N)n2)c(C)c1 [Compound 381, N-[(6-amino-2-pyridyl)sulfonyl]-2-(2,4-dimethylphenoxy)-6-(1-isobutylpyrazol-4-yl)pyridine-3-carboxamide] | ++ (“++” means between 3 uM and 10 uM) |
| CCOc1cc(F)cc(-c2ccc(C(=O)NS(=O)(=O)c3ccn[nH]3)c(N3[C@H](C)CC[C@@H]3C)n2)c1 [Compound 382, 2-[(2R,5S)-2,5-dimethylpyrrolidin-1-yl]-6-(3-ethoxy-5-fluoro-phenyl)-N-(1H-pyrazol-5-ylsulfonyl)pyridine-3-carboxamide] | +++ (“+++” means <3 uM) |
| CC(C)COc1cc(F)cc(-c2ccc(C(=O)NS(=O)(=O)c3cccc(N)n3)c(N3CCC4CCCC43)n2)c1 (stereo not shown) [Compound 383, 2-(3,3a,4,5,6,6a-hexahydro-2H-cyclopenta[b]pyrrol-1-yl)-N-[(6-amino-2-pyridyl)sulfonyl]-6-(3-fluoro-5-isobutoxy-phenyl)pyridine-3-carboxamide] | +++ (“+++” means <3 uM) |
| CC(C)CC(C)Oc1cc(-c2ccc(C(=O)NS(=O)(=O)c3cccc(N)n3)c(N3CC(C)CC3(C)C)n2)ccn1 (stereo not shown) [Compound 384, N-[(6-amino-2-pyridyl)sulfonyl]-6-[2-(1,3-dimethylbutoxy)-4-pyridyl]-2-(2,2,4-trimethylpyrrolidin-1-yl)pyridine-3-carboxamide] | +++ (“+++” means <3 uM) |
| COC(=O)[C@@H]1CCCN1c1nc(-c2cc(F)cc(OCC(C)C)c2)ccc1C(=O)NS(=O)(=O)c1cccc(N)n1 [Compound 385, methyl (2S)-1-[3-[(6-amino-2-pyridyl)sulfonylcarbamoyl]-6-(3-fluoro-5-isobutoxy-phenyl)-2-pyridyl]pyrrolidine-2-carboxylate] | +++ (“+++” means <3 uM) |
| Cc1cc(C)c(Oc2nc(-c3cccc4c3ccn4C)ccc2C(=O)NS(=O)(=O)c2cccc(N)n2)c(C)c1 [Compound 386, N-[(6-amino-2-pyridyl)sulfonyl]-6-(1-methylindol-4-yl)-2-(2,4,6-trimethylphenoxy)pyridine-3-carboxamide] | +++ (“+++” means <3 uM) |
| COc1ncc(F)cc1-c1ccc(C(=O)NS(=O)(=O)c2cccc(N)n2)c(Oc2c(C)cc(C)cc2C)n1 [Compound 387, N-[(6-amino-2-pyridyl)sulfonyl]-6-(5-fluoro-2-methoxy-3-pyridyl)-2-(2,4,6-trimethylphenoxy)pyridine-3-carboxamide] | +++ (“+++” means <3 uM) |
| Cc1cc(C)c(Oc2nc(-c3cccc(CC#N)c3)ccc2C(=O)NS(=O)(=O)c2cccc(N)n2)c(C)c1 [Compound 388, N-[(6-amino-2-pyridyl)sulfonyl]-6-[3-(cyanomethyl)phenyl]-2-(2,4,6-trimethylphenoxy)pyridine-3-carboxamide] | ++ (“++” means between 3 uM and 10 uM) |
| CC(C)COc1ccnc(-c2ccc(C(=O)NS(=O)(=O)c3cccc(N)n3)c(N3[C@H](C)CC[C@@H]3C)n2)c1 [Compound 389, N-[(6-amino-2-pyridyl)sulfonyl]-2-[(2S,5R)-2,5-dimethylpyrrolidin-1-yl]-6-(4-isobutoxy-2-pyridyl)pyridine-3-carboxamide] | +++ (“+++” means <3 uM) |
| CC(C)Oc1ccc(-c2nc(N3[C@H](C)CC[C@@H]3C)c(C(=O)NS(=O)(=O)c3cccc(N)n3)cc2Br)cn1 [Compound 390, N-[(6-amino-2-pyridyl)sulfonyl]-5-bromo-2-[(2S,5R)-2,5-dimethylpyrrolidin-1-yl]-6-(6-isopropoxy-3-pyridyl)pyridine-3-carboxamide] | +++ (“+++” means <3 uM) |
| Cc1ccc(-c2ccc(C(=O)NS(=O)(=O)c3ccc[nH]c3=O)c(N3[C@H](C)CC[C@@H]3C)n2)cc1 [Compound 392, 2-[(2R,5S)-2,5-dimethylpyrrolidin-1-yl]-N-[(2-oxo-1H-pyridin-3-yl)sulfonyl]-6-(p-tolyl)pyridine-3-carboxamide] | ++ (“++” means between 3 uM and 10 uM) |
| CC(C)COc1cc(F)cc(-c2ccc(C(=O)NS(=O)(=O)c3ccn[nH]3)c(NCC3CC(F)(F)C3)n2)c1 [Compound 393, 2-[(3,3-difluorocyclobutyl)methylamino]-6-(3-fluoro-5-isobutoxy-phenyl)-N-(1H-pyrazol-5-ylsulfonyl)pyridine-3-carboxamide] | ++ (“++” means between 3 uM and 10 uM) |
| Cc1cc(C)c(CN2Cc3cccc(O)c3C2(C)C(=O)NS(=O)(=O)c2cccc(N)n2)c(C)c1 (stereo not shown) [Compound 394, N-[(6-amino-2-pyridyl)sulfonyl]-7-hydroxy-1-methyl-2-[(2,4,6-trimethylphenyl)methyl]isoindoline-1-carboxamide] | +++ (“+++” means <3 uM) |
| CC(C)COc1cc(F)cc(-c2ccc(C(=O)NS(=O)(=O)c3cccc(O)c3)c(N3CC(C)CC3(C)C)n2)c1 (stereo not shown) [Compound 395, 6-(3-fluoro-5-isobutoxy-phenyl)-N-(3-hydroxyphenyl)sulfonyl-2-(2,2,4-trimethylpyrrolidin-1-yl)pyridine-3-carboxamide] | +++ (“+++” means <3 uM) |
| COc1c(F)cccc1-c1ccc(C(=O)NS(=O)(=O)c2cccc(N)n2)c(Oc2c(C)cc(C)cc2C)n1 [Compound 396, N-[(6-amino-2-pyridyl)sulfonyl]-6-(3-fluoro-2-methoxy-phenyl)-2-(2,4,6-trimethylphenoxy)pyridine-3-carboxamide] | +++ (“+++” means <3 uM) |
| CC(C)COc1cccc(-c2ccc(C(=O)NS(=O)(=O)c3cccc(N)n3)c(N3CC(C)CC3(C)C)n2)n1 (stereo not shown) [Compound 397, N-[(6-amino-2-pyridyl)sulfonyl]-6-(6-isobutoxy-2-pyridyl)-2-(2,2,4-trimethylpyrrolidin-1-yl)pyridine-3-carboxamide] | +++ (“+++” means <3 uM) |
| CC(C)COc1cc(F)cc(-c2ccc(C(=O)NS(=O)(=O)c3cccc(N)n3)c(N3CCC[C@@H]3C(F)(F)F)n2)c1 [Compound 398, N-[(6-amino-2-pyridyl)sulfonyl]-6-(3-fluoro-5-isobutoxy-phenyl)-2-[(2R)-2-(trifluoromethyl)pyrrolidin-1-yl]pyridine-3-carboxamide] | +++ (“+++” means <3 uM) |
| Cc1cc(C)c(Oc2nc(-c3ccc(C)c(C)c3)ccc2C(=O)NS(=O)(=O)c2cccc(N)n2)c(C)c1 [Compound 399, N-[(6-amino-2-pyridyl)sulfonyl]-6-(3,4-dimethylphenyl)-2-(2,4,6-trimethylphenoxy)pyridine-3-carboxamide] | +++ (“+++” means <3 uM) |
